# Reference: patent publication US20220204473A1, “COMPOUND AS IRAK INHIBITOR” (SHANGHAI MEIYUE BIOTECH DEVELOPMENT CO., LTD., priority 2018, published 2022)
# pIC50: −log10 of the molar value.
# Assays:
# human IRAK1 = biological target: T1, human IRAK1 (Homo sapiens, UniProt P51617); test: IRAK1 MSA (Mobility-Shift Assay) at Km ATP; assay type: biochemical
# T1 construct: purchased Cama (so in the source)
# Description: 5 μL of the intermediate dilutions were transferred into a black 384-well plate.
# IRAK1 was diluted to 7.5 nM in the kinase buffer (50 mM HEPES, pH 7.5, 0.00015% Brij-35, 2 mM DTT). 10 μL of the IRAK1 dilution was transferred to the 384-well plate and co-incubated with the compound for 10-15 min.
# (§1) The substrate and ATP were diluted to 12.5 μM and 242.5 μM with reaction buffer (50 mM HEPES, pH 7.5, 0.00015% Brij-35, 10 mM MgCl2), respectively. 10 μL of the dilutions was transferred to a 384-well plate and incubated at 28° C. for 1 h. The reaction was terminated by adding 25 μL of 50 mM EDTA to the 384-well plate.
# The inhibition rates of IRAK1 by the compounds were calculated by measuring the rate of phosphorylated substrate using a Caliper EZ Reader (PerkinElmer) and the IC50 values were calculated by XL-fit software.
# human IRAK4 = biological target: T2, human IRAK4 (Homo sapiens, UniProt Q9NWZ3); test: IRAK4 MSA (Mobility-Shift Assay) at Km ATP; assay type: biochemical; conditions: GST-IRAK4 1 nM, ATP 37 μM (Km); read-out: IC50 for inhibiting human IRAK4 kinase
# T2 construct: purchased Cama (so in the source)
# T2 sequence (Q9NWZ3 1-460): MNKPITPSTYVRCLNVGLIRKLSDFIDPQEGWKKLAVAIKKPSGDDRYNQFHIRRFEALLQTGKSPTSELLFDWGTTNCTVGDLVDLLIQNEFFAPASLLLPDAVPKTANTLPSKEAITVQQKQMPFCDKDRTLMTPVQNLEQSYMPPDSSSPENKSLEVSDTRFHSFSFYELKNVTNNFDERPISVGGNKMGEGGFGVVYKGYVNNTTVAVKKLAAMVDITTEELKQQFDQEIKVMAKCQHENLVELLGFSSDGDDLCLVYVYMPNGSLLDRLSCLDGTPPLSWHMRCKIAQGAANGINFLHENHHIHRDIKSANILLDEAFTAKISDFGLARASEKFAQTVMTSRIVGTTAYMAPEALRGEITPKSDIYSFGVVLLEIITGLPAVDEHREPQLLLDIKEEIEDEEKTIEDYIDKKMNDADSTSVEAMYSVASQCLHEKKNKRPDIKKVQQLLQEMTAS
# Description: A recombinant fusion protein of N-terminal GST (glutathione-S-transferase) and human IRAK4 was used as enzyme (GST-IRAK4, kinase IRAK4 (Cama)) at a final concentration of 1 nM; ATP (Sigma) was at a final concentration of 37 μM; the substrates used for the kinase reaction were a 5-FAM (5-carboxyfluorescein)-labeled polypeptide (5-FAM-[…]-COOH) and a substrate peptide FAM-P8 (GL Biochem) at final concentrations of […].
# In this assay, 500 μM solutions of the compounds were prepared in 100% DMSO, and serially 4-fold diluted to the 10th concentration gradient with 100% DMSO, followed by a 10-fold dilution in the compound buffer (50 mM HEPES. pH 7.5, 0.00015% Brij-35) to give intermediate dilutions of the compounds at a final concentration of 10 μM-0.04 nM containing 10% DMSO respectively, 5 μL of the dilutions were transferred into a black 384-well plate respectively.
# IRAK4 was diluted to 2.5 nM in the kinase buffer (50 mM HEPES, pH 7.5, 0.00015% Brij-35, 2 mM DTT). 10 μL of the IRAK4 dilution was transferred to the 384-well plate and co-incubated with the compound for 10-15 min.
# as §1, with “and 92.5” for “and 242.5”, “dilutions were” for “dilutions was”, “1 h respectively.” for “1 h.”
# The inhibition rates of IRAK4 by the compounds were calculated by measuring the rate of phosphorylated substrate using a Caliper EZ Reader (PerkinElmer) and the IC50 values were calculated by XL-fit software.
# [1] = Stability in rat liver microsomes; assay type: in vitro ADME; conditions: pH 7.4, ∞ = no obvious metabolism found during assay, read-out: Stability test in liver microsomes t1/2, Rat
# Description: (§2) 1. Preparation of buffer C:
# (§3) Buffer A: 1.0 L of 0.1 M monopotassium phosphate buffer (containing 1.0 mM EDTA);
# (§4) Buffer A: 1.0 L of 0.1 M dipotassium phosphate buffer (containing 1.0 mM EDTA);
# (§5) Buffer C: Buffer A was added to 700 mL of buffer B until pH reached 7.4.
# (§6) The test compound and the reference were separately dissolved in DMSO to give 10 mM stocks.
# (§7) 500 μM solution: 10 μL of 10 mM stock solution was added to 190 μL of acetonitrile;
# (§8) 1.5 μM dosing solution (in liver microsome solution):
# (§9) 18.75 μL of 20 mg/mL liver microsomes were added to 479.75 μL of buffer C, followed by 1.5 μL of 500 μM solution. The mixture was gently shaken to mix well.
# (§10) NADPH was weighed, to which an appropriate amount of buffer C was added to prepare a 6 mM NADPH solution.
# (§11) 5. 30 μL of 1.5 μM dosing solution was added to wells of a 96-well plate set for different time points (0 min, 5 min, 15 min, 30 min, 45 min) in duplicate.
# (§12) 6. Preparation of 0 min samples: 135 μL of acetonitrile (containing internal standard) was added to the 0 min wells, followed by 15 μL of 6 mM NADPH solution.
# (§13) 7. The 96-well plate containing 1.5 μM dosing solution and NADPH solution were preheated for 5 min in a water bath at 37° C.
# (§14) 8. 15 μL of pre-heated 6 mM NADPH solution was added to wells set for 5 min, 15 min, 30 min and 45 min to start the reaction.
# (§15) 9. At time points of 5 min, 15 min, 30 min and 45 min, the reaction was terminated by adding 135 μL of acetonitrile (containing internal standard). The mixtures were vortexed for 10 min and centrifuged at 5594×g for 15 min (Thermo Multifuge×3R).
# (§16) 10. 50 μL of the supernatant was transferred to wells of a 96-well plate containing 50 μL of water. The samples were mixed and finally subjected to LC-MS/MS analysis.
# [2] = Stability in mouse liver microsomes; assay type: in vitro ADME; conditions: ∞ = no obvious metabolism found during assay
# Description: as §2, §3, §4, §5, §6, §7, §8, §9, §10, §11, §12, §13, §14, §15, §16
# [3] = Stability in human liver microsomes; assay type: in vitro ADME; conditions: ∞ = no obvious metabolism found during assay
# Description: as §2, §3, §4, §5, §6, §7, §8, §9, §10, §11, §12, §13, §14, §15, §16
# T1 sequence (P51617 whole entry): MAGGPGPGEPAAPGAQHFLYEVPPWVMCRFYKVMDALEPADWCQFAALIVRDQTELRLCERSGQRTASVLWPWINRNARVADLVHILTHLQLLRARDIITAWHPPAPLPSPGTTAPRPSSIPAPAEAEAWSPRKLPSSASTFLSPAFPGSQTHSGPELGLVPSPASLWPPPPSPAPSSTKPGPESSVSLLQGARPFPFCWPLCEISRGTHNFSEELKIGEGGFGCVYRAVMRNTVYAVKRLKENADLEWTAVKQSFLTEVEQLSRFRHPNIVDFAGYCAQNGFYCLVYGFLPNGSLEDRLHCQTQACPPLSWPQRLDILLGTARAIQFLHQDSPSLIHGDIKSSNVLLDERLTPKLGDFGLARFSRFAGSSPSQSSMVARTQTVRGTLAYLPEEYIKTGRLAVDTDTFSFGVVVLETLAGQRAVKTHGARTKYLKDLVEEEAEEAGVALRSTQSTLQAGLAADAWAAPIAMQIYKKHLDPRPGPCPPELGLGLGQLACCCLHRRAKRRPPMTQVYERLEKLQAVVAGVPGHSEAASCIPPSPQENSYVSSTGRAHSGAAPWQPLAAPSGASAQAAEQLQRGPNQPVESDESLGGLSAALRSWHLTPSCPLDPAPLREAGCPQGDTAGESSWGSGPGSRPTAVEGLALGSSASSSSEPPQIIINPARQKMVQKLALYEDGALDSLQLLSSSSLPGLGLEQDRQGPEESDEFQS
SMILES,pIC50 (human IRAK1),IC50 (IRAK1)/IC50 (IRAK4) (human IRAK1; selectivity for IRAK4),pIC50 (human IRAK4),half-life at 1 μM [1],"Stability test in liver microsomes t1/2, Mouse [2]","Stability test in liver microsomes t1/2, Human [3]"
CC(C)(O)c1cc2nn([C@H]3C[C@H](C(C)(C)O)C3)cc2cc1NC(=O)c1cccc(C(F)(F)F)n1 [MY-004-109],5.36,745,8.24,–,–,–
CC(C)(O)[C@H]1C[C@H](n2cc3cc(NC(=O)c4cccc(C(F)(F)F)n4)c(-n4cccn4)cc3n2)C1 [MY-004-144],–,–,8.36,11.4 h,∞,∞
